In patent publication US8952012B2, “Inhibition of delta-6 desaturase for the treatment of cardiometabolic disease” (Colorado State University Research Foundation, priority 2012, dated 2015):

Columns and labels:
delta-6 desaturase (D6D) [1] = target: T1, delta-6 desaturase (D6D) (Mus musculus, UniProt Q9Z0R9); settings: cited from earlier work
T1 construct: host or cells: endogenous enzyme of the dosed animal
T1 sequence (Q9Z0R9 1-444): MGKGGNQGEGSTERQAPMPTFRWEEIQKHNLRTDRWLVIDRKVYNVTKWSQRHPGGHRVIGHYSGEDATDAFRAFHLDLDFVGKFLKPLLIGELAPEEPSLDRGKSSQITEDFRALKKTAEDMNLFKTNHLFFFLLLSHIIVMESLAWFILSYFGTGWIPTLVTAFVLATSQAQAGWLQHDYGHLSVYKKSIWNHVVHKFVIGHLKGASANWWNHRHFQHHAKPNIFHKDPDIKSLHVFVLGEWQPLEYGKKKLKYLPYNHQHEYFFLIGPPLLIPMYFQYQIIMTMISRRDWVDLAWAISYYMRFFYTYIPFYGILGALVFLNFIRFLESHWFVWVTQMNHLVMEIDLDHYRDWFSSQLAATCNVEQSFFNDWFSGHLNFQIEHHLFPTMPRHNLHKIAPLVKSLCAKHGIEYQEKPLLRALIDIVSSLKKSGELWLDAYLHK

[2] = cited from earlier work
[3] = target: T2, microsomal triglyceride transfer protein (MTP) (Bos taurus, UniProt P55156); assay: MTP activity, purified bovine MTP; type: biochemical; settings: relatively weak potency
T2 sequence (P55156 12-887): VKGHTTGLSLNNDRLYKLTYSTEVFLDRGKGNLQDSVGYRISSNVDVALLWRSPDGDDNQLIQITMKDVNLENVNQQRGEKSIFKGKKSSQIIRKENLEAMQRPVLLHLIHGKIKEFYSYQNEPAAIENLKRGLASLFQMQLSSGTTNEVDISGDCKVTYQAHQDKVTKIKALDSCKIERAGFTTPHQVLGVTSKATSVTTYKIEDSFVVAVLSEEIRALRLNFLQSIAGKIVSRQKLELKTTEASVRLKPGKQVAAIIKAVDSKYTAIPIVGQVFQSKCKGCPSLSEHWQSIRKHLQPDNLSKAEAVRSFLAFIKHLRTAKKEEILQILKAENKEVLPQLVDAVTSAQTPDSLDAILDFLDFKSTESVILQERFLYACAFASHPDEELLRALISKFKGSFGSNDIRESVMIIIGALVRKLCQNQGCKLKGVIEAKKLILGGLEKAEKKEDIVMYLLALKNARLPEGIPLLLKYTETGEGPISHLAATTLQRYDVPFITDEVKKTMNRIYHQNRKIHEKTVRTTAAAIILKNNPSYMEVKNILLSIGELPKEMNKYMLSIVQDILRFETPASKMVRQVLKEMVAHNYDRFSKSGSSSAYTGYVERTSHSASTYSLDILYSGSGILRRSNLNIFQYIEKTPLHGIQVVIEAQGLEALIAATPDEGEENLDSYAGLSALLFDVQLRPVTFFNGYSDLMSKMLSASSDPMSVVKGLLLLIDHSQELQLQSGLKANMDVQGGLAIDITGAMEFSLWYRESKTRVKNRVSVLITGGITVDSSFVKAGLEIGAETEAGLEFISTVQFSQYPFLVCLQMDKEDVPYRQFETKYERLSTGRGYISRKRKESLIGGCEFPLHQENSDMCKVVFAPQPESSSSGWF
T2 sequence (P05307 21-510 partner): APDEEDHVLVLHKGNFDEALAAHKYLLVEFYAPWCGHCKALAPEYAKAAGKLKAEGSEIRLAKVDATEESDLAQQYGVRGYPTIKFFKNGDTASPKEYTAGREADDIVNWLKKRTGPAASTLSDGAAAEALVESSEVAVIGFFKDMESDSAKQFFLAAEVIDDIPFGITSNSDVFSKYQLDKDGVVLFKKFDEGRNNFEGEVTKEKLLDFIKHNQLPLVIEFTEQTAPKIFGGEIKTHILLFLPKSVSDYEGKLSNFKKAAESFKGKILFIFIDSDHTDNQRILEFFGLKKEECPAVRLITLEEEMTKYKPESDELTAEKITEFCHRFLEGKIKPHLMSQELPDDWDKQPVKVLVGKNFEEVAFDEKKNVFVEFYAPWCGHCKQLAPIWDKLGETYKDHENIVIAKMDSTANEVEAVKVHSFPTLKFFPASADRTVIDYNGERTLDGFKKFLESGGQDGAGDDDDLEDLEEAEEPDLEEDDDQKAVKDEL

delta-6 desaturase (D6D) [4] = settings: cited from earlier work
ob mice = ob mice on high fat/sucrose Western diet; type: in vivo
Protocol: (§1) To assess the effects of D6D inhibition on structures and processes related to cardiometabolic diseases and disorders, the following experiments were conducted. Animal studies have reported evidence of increased D6D activity in rodent models of CMD (e.g., increase in AA/LA in tissue phospholipids), making them reasonable models for studying the role of D6D in its pathogenesis. To probe the effect of D6D directly, the compound SC-26196, a selective D6D inhibitor was orally administered by admixing the SC-26196 in the food mixtures of the rodent models of CMD at a dosage of about 100 mg/kg/day for four weeks. The rodent models of CMD used in these experiments included a murine model of hyperphagic obesity (leptin-deficient ob mice) and a diet-induced insulin resistance model (normal C57BI/6 mice fed a high-fat “Western” diet) for 8 weeks prior to participation in any experiments.
To assess the interaction of a high-fat Western diet with the effects of D6D inhibition, the following experiment was conducted. The ob mice and the BI/6 mice were maintained on a high fat/sucrose Western diet and part of each group was treated with SC-26196 in a similar manner as described above. The treated and untreated ob and BI/6 mice were compared. FIGS. 4A-4B summarize the results of this experiment.

[5] = target: T3, microsomal triglyceride transfer protein (MTP) (Rattus norvegicus, UniProt D4A1W8); assay: MTP activity, rat liver microsomal extracts; type: biochemical; settings: rat liver microsomal extracts at 100 mpk dosing in vivo; relatively weak potency
T3 construct: rat liver microsomal extracts; from tissue; host or cells: rat liver microsomal extracts
T3 sequence (D4A1W8 22-896): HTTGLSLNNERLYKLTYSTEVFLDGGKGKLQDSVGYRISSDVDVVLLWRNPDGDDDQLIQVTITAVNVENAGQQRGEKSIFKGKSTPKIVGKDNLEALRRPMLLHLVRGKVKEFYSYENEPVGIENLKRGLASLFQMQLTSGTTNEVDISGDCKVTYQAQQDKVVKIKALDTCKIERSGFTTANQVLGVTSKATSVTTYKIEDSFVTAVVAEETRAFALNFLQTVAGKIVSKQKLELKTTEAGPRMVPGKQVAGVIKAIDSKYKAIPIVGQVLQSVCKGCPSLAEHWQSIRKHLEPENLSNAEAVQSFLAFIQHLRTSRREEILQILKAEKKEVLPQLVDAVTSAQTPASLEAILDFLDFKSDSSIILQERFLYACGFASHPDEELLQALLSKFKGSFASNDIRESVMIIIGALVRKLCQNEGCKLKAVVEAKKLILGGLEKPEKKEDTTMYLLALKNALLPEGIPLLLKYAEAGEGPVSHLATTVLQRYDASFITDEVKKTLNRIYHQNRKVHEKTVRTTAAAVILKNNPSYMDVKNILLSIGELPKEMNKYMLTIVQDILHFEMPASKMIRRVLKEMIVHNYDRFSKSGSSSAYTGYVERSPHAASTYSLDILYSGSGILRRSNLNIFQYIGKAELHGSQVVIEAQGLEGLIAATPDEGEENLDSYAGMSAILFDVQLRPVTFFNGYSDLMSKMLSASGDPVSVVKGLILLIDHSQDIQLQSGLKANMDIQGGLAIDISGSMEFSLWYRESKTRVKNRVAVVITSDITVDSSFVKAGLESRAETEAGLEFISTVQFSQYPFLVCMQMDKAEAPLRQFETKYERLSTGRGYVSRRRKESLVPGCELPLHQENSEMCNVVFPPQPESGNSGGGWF
T3 sequence (P04785 20-509 partner): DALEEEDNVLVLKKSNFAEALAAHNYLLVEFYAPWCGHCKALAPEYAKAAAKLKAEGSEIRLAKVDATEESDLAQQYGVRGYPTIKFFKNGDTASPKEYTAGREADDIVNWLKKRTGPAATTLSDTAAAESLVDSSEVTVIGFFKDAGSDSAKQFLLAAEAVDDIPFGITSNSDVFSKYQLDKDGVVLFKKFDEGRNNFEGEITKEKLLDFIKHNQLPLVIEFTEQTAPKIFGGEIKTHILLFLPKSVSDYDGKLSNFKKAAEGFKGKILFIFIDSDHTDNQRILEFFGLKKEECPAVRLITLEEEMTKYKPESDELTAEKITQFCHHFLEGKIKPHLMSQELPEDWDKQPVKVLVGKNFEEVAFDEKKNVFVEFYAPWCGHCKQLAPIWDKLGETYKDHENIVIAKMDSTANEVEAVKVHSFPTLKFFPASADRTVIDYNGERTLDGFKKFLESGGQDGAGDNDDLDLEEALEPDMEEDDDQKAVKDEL

LDLR -/- mice = assay: LDL receptor-lacking mice on Western diet; type: in vivo
Description: (§2) Mice lacking LDL receptors (LDLR −/−) were similarly maintained on a high fat/sucrose Western diet and treated with SC-26196 in a similar manner as described above. As summarized in FIG. 5, SC-26196 treatment ameliorated hyperlipidemia and atherosclerosis in mice lacking LDL receptors fed the Western diet. The treatment also attenuated cardiac dysfunction, pathologic hypertrophy and fibrosis in mice subjected to thoracic aortic banding (TAC) or chronic hypertension (HF), as summarized in FIG. 6.

[6] = Liver toxicity on chronic administration; type: in vivo; settings: 100 mpk/d for 4 wks, all animal models tested
[7] = system: cardiac dysfunction, hypertrophy, fibrosis; assay: Thoracic aortic banding (TAC) or chronic hypertension (HF) model; type: in vivo, mice
Description: as §2

leptin-deficient ob mice = assay: ob/ob mice (hyperphagic obesity) on normal diet treated 4 weeks; type: in vivo
Protocol: as §1
Initially, the effects of D6D inhibition in conjunction with a normal diet were assessed. 4 mo old ob/ob mice were administered the selective D6D inhibitor SC-26196 (100 mg/kg/d mixed in chow) for 4 weeks (ob/ob+D6D−; n=12). The ob mice treated with SC-26196 for four weeks (ob+SC) were compared to untreated ob mice (ob) and normal C57BI/6 mice (BI/6). FIGS. 3A-C summarizes the results of this comparison. […] As summarized in FIG. 7, treatment with SC-26196 normalized responses to a glucose tolerance test, decreased serum insulin, and reduced hepatic macrophage (MΦ) content and ser-307 phosphorylation of IRS-1, the canonical cellular mechanism of hepatic insulin resistance resulting from inflammatory signaling. As summarized in FIGS. 8A and 8B, treatment with SC-26196 reduced the hepatic PC/PE ratio in the treated ob mice. FIG. 9 illustrates that SC-26196 treatment normalized the cardiac phospholipid/cardiolipin composition in the treated ob mice.

tissue AA/LA ratios = settings: cited from earlier work
[8] = ob mice, normal diet, 100 mg/kg/d
[9] = ob/ob mice, cardiac, 100 mg/kg/d, vs lean C57BI/6
[10] = 100 mpk/d mixed in mouse chow, 4 weeks

N#CC(CCCN1CCN(/N=C/c2cccnc2)CC1)(c1ccccc1)c1ccccc1 [SC-26196, (E)-2,2-Diphenyl-5-{4-[(pyridin-3-yl-methylene)amino]piperazin-1-yl}pentanenitrile]
inhibition of D6D enzymatic activity in vivo (delta-6 desaturase (D6D) [1]; 100 mg/kg b.i.d., i.g. over a 24 hr period): about 65%
oral activity (delta-6 desaturase (D6D) [1]; at 100 mpk): oral activity
Peak plasma levels ([2]; 100 mpk ig dosing): 2 µM
half-life ([2]; 100 mpk ig dosing): 1.2 h
bioavailability ([2]; 100 mpk ig, based on AUC calculations): about 60%
MTP activity [3]: inhibited MTP activity
selectivity for D6D over other desaturase enzymes (delta-6 desaturase (D6D) [4]): potent selectivity
IC50 (delta-6 desaturase (D6D) [4]; in vitro): 200 nM
fasting blood glucose (ob mice): reduced
responses to a glucose tolerance test (ob mice): normalized
serum insulin levels (ob mice): normalized 8-fold elevations
MTP activity [5]: inhibited MTP activity
atherosclerosis (LDLR -/- mice): ameliorated
hyperlipidemia (LDLR -/- mice): ameliorated
hepatomegaly [6]: significant hepatomegaly
cardiac dysfunction [7]: attenuated
fibrosis [7]: attenuated
pathologic hypertrophy [7]: attenuated
ser-307 phosphorylation of IRS-1 (leptin-deficient ob mice; ob mice, liver, normal diet, 100 mg/kg/d): reduced
cardiac oxidative stress (leptin-deficient ob mice; [8]): reduced
cardiac phospholipid/cardiolipin composition (leptin-deficient ob mice; [8]): normalized
eicosanoid species in heart tissue (leptin-deficient ob mice; [8]): abolished significant increases
eicosanoid species in serum (leptin-deficient ob mice; [8]): abolished significant increases
hepatic PC/PE ratio (leptin-deficient ob mice; [8]): reduced
hepatic macrophage content (leptin-deficient ob mice; [8]): reduced
responses to a glucose tolerance test (leptin-deficient ob mice; [8]): normalized
serum insulin (leptin-deficient ob mice; [8]): decreased
phospholipid AA/LA ratio of serum, liver, heart and muscle tissue (leptin-deficient ob mice; ob mice, normal diet, 100 mg/kg/d in chow): reversed significant elevations
cardiac cardiolipin profile (leptin-deficient ob mice; ob/ob mice, 100 mg/kg/d in chow, vs lean C57BI/6): to levels similar to those in lean age-matched control mice
membrane peroxidizability index (leptin-deficient ob mice; [9]): to levels similar to those in lean age-matched control mice
phospholipid D6D activity index (20:4/18:2 ratio) (leptin-deficient ob mice; [9]): to levels similar to those in lean age-matched control mice
phospholipid DHA content (leptin-deficient ob mice; [9]): to levels similar to those in lean age-matched control mice
effect in a model of acute inflammation (tissue AA/LA ratios; [10]): protective effects
tissue AA/LA ratios (tissue AA/LA ratios; [10]): reduced
reversing elevations of tissue AA/LA associated with acute inflammation (tissue AA/LA ratios; lower doses, 50 and 75 mpk/d, 4 wks): ineffective
